Measured values as given in patent publication US11465994B2, “MGluR7 agonist compounds for treating mGluR7-regulated diseases, disorders, or conditions” (Takeda Pharmaceutical Company Limited, priority 2016, dated 2022).
Where two headings read alike, the source gives them in different places.

What was measured:
Format in all cases: cell-based
[1] = test system: CA1 pyramidal cells in mouse hippocampal slices (SC-CA1 pathway); assay: Electrophysiology: intracellular EPSC recordings from CA1 pyramidal cells in mouse hippocampal slices
Method: FIG. 3A is a graph showing the results of a glutamate release assay for CPD1 in mouse synaptosomes. FIG. 3B is a graph showing the results of a glutamate release potentiation assay. FIG. 3C and FIG. 3D provide graphs of electrophysiological recordings from the SC-CA1 pathway in mouse hippocampal slices. FIG. 3C is a graph comparing the changes in intracellular recordings of excitatory postsynaptic currents (EPSCs) as a result of contact with L-AP4 at a concentration of 0.5 mM, CPD 1 at a concentration of 1 μM, and CPD 1 at a concentration of 5 μM. FIG. 3D is a graph comparing the changes in intracellular recordings of EPSCs in mice with wild-type (WT) mGluR7 and mice with an mGluR7 knock-out contacted with CPD 1 at a concentration of 5 μM.
Intracellular recordings were made from CA1 pyramidal cells following SC stimulation in mouse hippocampal slices. Compounds were applied to the slices for 10 min, with recordings made over a 45 minutes period. mGluR7 KO mice were obtained from the Toronto Centre for Phenogenomics.

mGluR4 = mGluR4 (Homo sapiens, UniProt Q14833); assay: Selectivity HTRF cAMP assay in stable CHO-mGluR4 cells
Sequence of mGluR4 (Q14833 33-912): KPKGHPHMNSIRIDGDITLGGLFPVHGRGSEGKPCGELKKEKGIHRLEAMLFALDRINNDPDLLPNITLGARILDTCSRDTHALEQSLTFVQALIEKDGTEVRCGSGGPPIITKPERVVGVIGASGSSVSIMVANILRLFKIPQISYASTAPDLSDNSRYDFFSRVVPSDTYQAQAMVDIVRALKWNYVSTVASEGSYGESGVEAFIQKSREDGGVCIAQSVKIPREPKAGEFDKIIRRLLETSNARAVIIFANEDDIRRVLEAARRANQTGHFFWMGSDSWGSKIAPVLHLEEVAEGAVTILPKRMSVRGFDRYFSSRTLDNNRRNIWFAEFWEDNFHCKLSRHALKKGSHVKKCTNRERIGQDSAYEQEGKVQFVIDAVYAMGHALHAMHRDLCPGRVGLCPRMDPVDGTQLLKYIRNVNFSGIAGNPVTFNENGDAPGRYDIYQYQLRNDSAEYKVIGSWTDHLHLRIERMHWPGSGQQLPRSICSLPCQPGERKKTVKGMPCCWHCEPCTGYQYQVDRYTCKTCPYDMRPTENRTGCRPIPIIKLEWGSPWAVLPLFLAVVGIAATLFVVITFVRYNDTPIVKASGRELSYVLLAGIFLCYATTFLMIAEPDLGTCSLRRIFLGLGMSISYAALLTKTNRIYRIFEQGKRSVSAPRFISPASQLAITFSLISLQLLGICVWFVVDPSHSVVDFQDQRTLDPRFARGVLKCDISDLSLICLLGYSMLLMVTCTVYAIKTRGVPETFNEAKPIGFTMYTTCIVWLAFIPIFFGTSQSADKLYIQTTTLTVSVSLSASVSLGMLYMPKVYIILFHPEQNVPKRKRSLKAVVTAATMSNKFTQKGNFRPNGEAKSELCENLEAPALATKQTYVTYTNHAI
Method: (§1) Compound activities were determined in CHO-CRE-luc cells stably expressing hu/mo mGluR7, using a cAMP reporter gene assay (Steady Glo, Promega). Selectivity was assessed in stable CHO-mGluR4 cells (DiscoverX) and CHO-mGluR8 transients using an HTRF cAMP assay (Cisbio).
(§2) The activation of mGluR7 was measured by the decreased forskolin stimulated luminescence signal. […] Forskolin stimulated luminescence signal was not reduced for mGluR4 and mGluR8.

mGluR7 [2] = target: T1, mGluR7 (Homo sapiens, UniProt Q14831); assay: cAMP CRE-luciferase reporter gene assay (Steady Glo) in CHO-CRE-luc cells stably expressing human mGluR7; design: expressed in transfected cells
T1 sequence (Q14831 35-915): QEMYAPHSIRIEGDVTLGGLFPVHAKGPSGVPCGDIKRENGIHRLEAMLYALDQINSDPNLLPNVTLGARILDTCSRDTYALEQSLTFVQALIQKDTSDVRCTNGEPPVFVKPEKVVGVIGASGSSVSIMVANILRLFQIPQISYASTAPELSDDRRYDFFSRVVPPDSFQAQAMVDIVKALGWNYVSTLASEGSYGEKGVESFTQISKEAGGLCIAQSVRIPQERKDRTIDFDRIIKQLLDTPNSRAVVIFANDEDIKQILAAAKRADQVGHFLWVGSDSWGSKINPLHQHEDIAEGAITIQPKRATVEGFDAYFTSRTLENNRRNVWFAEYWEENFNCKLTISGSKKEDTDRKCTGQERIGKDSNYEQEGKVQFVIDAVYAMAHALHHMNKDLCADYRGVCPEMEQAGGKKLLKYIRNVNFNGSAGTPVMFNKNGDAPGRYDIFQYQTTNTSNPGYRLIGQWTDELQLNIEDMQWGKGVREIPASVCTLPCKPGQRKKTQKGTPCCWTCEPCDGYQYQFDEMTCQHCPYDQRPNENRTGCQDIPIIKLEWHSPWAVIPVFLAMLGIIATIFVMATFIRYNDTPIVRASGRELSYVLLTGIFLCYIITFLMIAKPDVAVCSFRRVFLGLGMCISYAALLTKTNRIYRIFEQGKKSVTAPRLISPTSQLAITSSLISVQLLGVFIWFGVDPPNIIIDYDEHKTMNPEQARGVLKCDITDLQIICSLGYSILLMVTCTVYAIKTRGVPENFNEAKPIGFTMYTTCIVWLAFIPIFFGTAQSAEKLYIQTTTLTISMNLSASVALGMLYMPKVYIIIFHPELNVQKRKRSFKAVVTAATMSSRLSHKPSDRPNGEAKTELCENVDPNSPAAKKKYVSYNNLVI
Method: as §1
The ability of the test compounds to activate mGluR7 was determined by their ability to reduce forskolin stimulated cAMP production. Compounds were assessed in a CRE-directed luciferase reporter gene assay, using a stable CHO cell line expressing the CRE-luc reporter and human mGluR7 genes. In this cell line, production of cAMP stimulated the transcription of the luciferase gene and luciferase activity was then measured in a luminescent enzyme assay (Steady Glo assay; Promega E2550). Activation of mGluR7 decreased the forskolin stimulated luminescence signal.
The day prior to the assay, compounds were serially diluted in DMSO (100× final assay concentration (FAC)), in 384-well plates which were then stored in the dark at room temperature (RT) until use. Cells were seeded at 12.5 k/well in white, clear bottom 384-well plates (Corning 3707) and left for one hour at RT followed by an overnight incubation (37° C.). The following day, the DMSO compound plate was diluted 1:20 (5×FAC) in Opti-MEM I (Life Technologies 11058021). The growth media was removed from the cell plate and replaced with 15 μl Opti-MEM I, followed by a 5 μl addition from the 5× compound plate and a fifteen minute incubation (37° C.). Forskolin (Sigma F3917) was then added to the wells (5 μl of 2.5 μM) and the plate was incubated for five hours (37° C.). During this incubation, the Steady Glo Substrate reagent was warmed to 37° C. Aliquots (11 ml; stored at −20° C.) of this reagent were prepared by dissolving the contents of 1 vial of lyophilised substrate in 100 ml Steady-Glo buffer. A 25 μl addition of the substrate was made to all wells and the plate was incubated for thirty minutes at RT, on a plate shaker (300 rpm; in the dark). Luminescence was then measured using the EnVision Multilabel Reader (Perkin Elmer).
Compound activity was examined using a 10-point, half log concentration-response range and each concentration was tested in duplicate wells. Luminescence values were normalised to ‘maximum’ (forskolin alone) and ‘minimum’ (forskolin in the presence of tool mGluR7 agonist) controls.

[3] = test system: mouse cortical synaptosomes; assay: Glutamate release assay in mouse cortical synaptosomes
Method: Stimulus induced glutamate release from mouse cortical synaptosomes was monitored using a fluorescence based glutamate dehydrogenase assay. Compounds were incubated for 1 or 10 min for the inhibition or potentiation modes respectively.

mGluR7 [4] = target: T1, mGluR7; assay: Mode of action: cAMP assay in CHO-CRE-luc human mGluR7 cells in presence of orthosteric antagonist LY341495; design: expressed in transfected cells; conditions: FIG. 2C, 2D
Method: FIGS. 2A-2D are graphs of the results from in vitro cAMP assays in CHO-CRE-luc cells stably expressing human mGluR7 to determine the mode of action of CPD1. FIG. 2A provides the compound activity of non-selective agonist, L-AP4, with increasing concentrations of orthosteric antagonist, LY341495 (LY). FIG. 2B provides the compound activity of a positive allosteric modulator (PAM) compound, VU0422288, for the same concentrations of LY as shown in FIG. 2A.
as §1
The mode of action of the compound in Example 16 was determined by testing activity in the presence of the orthosteric antagonist LY341495 (LY).

mouse mGluR7 = target: T2, mouse mGluR7 (Mus musculus, UniProt Q68ED2); assay: cAMP reporter gene assay in CHO-CRE-luc cells stably expressing mouse mGluR7
T2 construct: expressed in transfected cells
T2 sequence (Q68ED2 35-915): as the sequence (Q14831 35-915) above, with S454T, A486P, D544N counted along it
Method: as §1, §2

mGluR7 [5] = target: T1, mGluR7; assay: Kinetic impedance assay (desensitization) in stable CHO-mGluR7 cells, response to tool activator CPD A after pre-treatment; conditions: pre-treatment, FIG. 1B
Method: Stable CHO-mGluR7 cells (DiscoverX) were pre-incubated with compounds (EC80, 1 h), washed and after 30 min, impedance changes upon addition of a tool mGluR7 activator (CPD A) were determined (Cellkey, Molecular Devices).

mGluR8 = target: T3, mGluR8 (Homo sapiens, UniProt O00222); assay: Selectivity HTRF cAMP assay in CHO-mGluR8 transients
T3 construct: expressed in transfected cells; host or cells: CHO (transient transfection)
T3 sequence (O00222 34-908, species assumed): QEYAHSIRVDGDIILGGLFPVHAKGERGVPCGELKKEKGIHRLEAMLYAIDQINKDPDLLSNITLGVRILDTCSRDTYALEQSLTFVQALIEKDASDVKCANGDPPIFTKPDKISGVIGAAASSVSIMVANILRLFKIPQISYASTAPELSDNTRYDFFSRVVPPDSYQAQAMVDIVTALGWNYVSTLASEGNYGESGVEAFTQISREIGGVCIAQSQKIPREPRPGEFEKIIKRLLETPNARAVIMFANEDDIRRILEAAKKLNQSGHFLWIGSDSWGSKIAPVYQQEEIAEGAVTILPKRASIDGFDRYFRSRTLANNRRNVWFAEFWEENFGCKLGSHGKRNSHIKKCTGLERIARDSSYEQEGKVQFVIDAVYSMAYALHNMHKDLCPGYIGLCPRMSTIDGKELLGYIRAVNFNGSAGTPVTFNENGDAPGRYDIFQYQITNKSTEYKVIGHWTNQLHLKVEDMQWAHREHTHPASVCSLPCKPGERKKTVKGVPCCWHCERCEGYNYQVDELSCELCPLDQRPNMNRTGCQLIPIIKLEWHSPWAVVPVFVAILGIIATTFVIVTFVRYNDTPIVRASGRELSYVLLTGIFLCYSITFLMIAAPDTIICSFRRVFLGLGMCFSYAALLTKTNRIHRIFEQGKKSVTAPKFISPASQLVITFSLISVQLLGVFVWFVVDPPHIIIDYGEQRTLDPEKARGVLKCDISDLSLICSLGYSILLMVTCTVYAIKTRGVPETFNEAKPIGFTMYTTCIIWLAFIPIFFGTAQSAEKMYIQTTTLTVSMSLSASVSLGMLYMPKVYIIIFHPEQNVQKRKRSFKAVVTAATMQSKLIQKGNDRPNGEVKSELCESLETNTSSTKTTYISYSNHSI
Method: as §1, §2

## C[C@H](C(=O)NC1COc2ccccc2C1S(C)(=O)=O)c1ccc(F)cc1 (single isomer, unassigned) [Example 16]
[1]; mGluR7 KO mice, 5 μM, FIG. 3D
  activity on EPSCs in slices from mGluR7 KO mice (in words): inactive
[1]; wild-type mouse hippocampal slices, FIG. 3C
  effect on excitatory postsynaptic currents (EPSCs) amplitude (in words): bimodal effect
mGluR4; FIG. 1A
  activity at mGluR4 (in words): no activity
mGluR4; tested ≤10 μM
  EC50 mGluR4: inactive
  Emax mGluR4: inactive
mGluR7 [2]; FIG. 1A
  agonist activity at mGluR7, human samples (in words): full agonist
mGluR7 [2]; mean ± standard deviation, n=2
  Emax mGluR7 (human): 100 ± 1.8 % control
mGluR7 [2]; mean ± standard deviation, n=2, read-out: EC50 mGluR7 (human)
  EC50: 6.9 ± 0.8 nM
mGluR7 [2]; reduction of forskolin stimulated cAMP (luminescence), CHO CRE-luc human mGluR7, read-out: EC50
  EC50: 7 nM
[3]; Mus musculus, 1 min, short incubation (1 minute), FIG. 3A, read-out: EC50 of reduction of glutamate release
  EC50: 34 nM
[3]; longer exposure (10 minutes), FIG. 3B
  enhancement of glutamate release: 92%
[3]; short incubation (1 minute), FIG. 3A
  reduction of glutamate release: 30%
mGluR7 [4]
  effect of increasing LY341495 concentrations on compound activity (in words): unaffected
Mouse mGluR7; FIG. 1A
  agonist activity at mGluR7, mouse samples (in words): full agonist
Mouse mGluR7; mean ± standard deviation, n=2
  EC50: 1.8 ± 3.5 nM
  Emax mGluR7 (mouse): 100 ± 0.1 % control
mGluR7 [5]
  effect of pre-treatment on response to CPD A (in words): did not alter
mGluR8; FIG. 1A
  activity at mGluR8 (in words): no activity
mGluR8; tested ≤10 μM
  EC50 mGluR8: inactive
  Emax mGluR8: inactive
